US4863906A, “2'-deoxy-5-ethynyluridine-3',5'-diestens for treatment of VZV and CMV infections” (Burroughs Wellcome Co., priority 1985, dated 1989)
Like-named read-outs stand apart in the source and are kept apart here.

Assays:
[1] = test system: Human cytomegalovirus (HCMV); assay: HCMV plaque reduction assay in MRC5 or Detroit 532 cells; type: cell-based; conditions: Human betaherpesvirus 5, MRC5, MRC5 or Detroit 532 cells
Experimental: (§1) Human cytomegalovirus (HCMV) was assayed in monolayers of either MRC5 cells (human embryonic lung) or Detroit 532 cells (human foreskin fibroblasts) in multiwell trays. Activity of compounds was determined in the plaque reduction assay, in which a cell monolayer was infected with a suspension of HCMV, and then overlaid with nutrient agarose in the form of a gel to ensure that there was no spread of virus throughout the culture. A range of concentrations of compound of known molarity was incorporated in the nutrient agarose overlay. Plaque numbers at each concentration were expressed as percentages of the control and a dose-response curve was drawn. From this curve the 50% inhibitory concentration (IC50) was estimated.

[2] = test system: Herpes simplex type 1 (HSV1); assay: HSV1 assay in Vero cells (similar to HCMV plaque reduction assay); type: cell-based; conditions: read-out: IC50 HSV1
Experimental: as §1
Herpes simplex type 1 (HSV1) was assayed in Vero cells in a similar method to that described for the HCMV assay.

[3] = test system: Varicella zoster virus (VZV); assay: VZV assay in MRC5 cells (similar to HCMV plaque reduction, without agarose overlay); type: cell-based
Experimental: as §1
Varicella zoster virus (VZV) was assayed in MRC5 cells by a similar method to that for HCMV with the omission of the agarose overlay.

[4] = Cell toxicity: cell growth inhibition assay in Vero cells (MTT uptake); type: cell-based; conditions: monkey, 50% inhibition of cell viability at 96 hours, read-out: CCID50 at 96 hr.
Experimental: Cell toxicity was assessed in a cell growth inhibition assay. Subconfluent cultures of Vero cells grown on 96-well microtiter dishes were exposed to different dilutions of drug, and cell viability determined daily on replicate cultures using uptake of a tetrazolium dye (MTT). The concentration required for a 50% inhibition of cell viability at 96 hours is termed CCID50.

certain DNA viruses = assay: Antiviral activity against certain DNA viruses (general statement); conditions: DNA viruses other than vaccinia and herpes simplex
herpes simplex viruses = conditions: Walker et al. 1978; UK 1 601 020; cited from earlier work
vaccinia = conditions: Walker et al. 1978; UK 1 601 020; cited from earlier work
[5] = Human alphaherpesvirus 1, Vero cells
[6] = Human alphaherpesvirus 3, MRC5, MRC5 cells, read-out: IC50 VZV

## C#Cc1cn([C@H]2C[C@H](O)[C@@H](COC(=O)C3CC3)O2)c(=O)[nH]c1=O [H/Cyclopropanoyl, 5'-O-Cyclopropanoyl-2'-deoxy-5-ethynyluridine]
[1]
  IC50: 0.9 µM
[2]; [5]
  IC50: > 20 µM
[3]; [6]
  IC50: 6.5 µM
[4]; vero cells
  CC50 at 96 h: 15 µM

## C#Cc1cn([C@H]2C[C@H](O)[C@@H](COS(=O)(=O)c3ccc(C)cc3)O2)c(=O)[nH]c1=O [H/p-Tosyl]
[1]
  IC50: 5.6 µM

## C#Cc1cn([C@H]2C[C@H](OS(C)(=O)=O)[C@@H](COS(C)(=O)=O)O2)c(=O)[nH]c1=O [Methanesulphonyl/Methanesulphonyl, 2'-Deoxy-3'-5'-di-O-methanesulphonyl-5-ethynyluridine]
[1]
  IC50: > 50 µM
[2]; [5]
  IC50: > 20 µM
[3]; [6]
  IC50: 16 µM

## C#Cc1cn([C@H]2C[C@H](OC(=O)c3ccc(C)cc3)[C@@H](COC(=O)c3ccc(C)cc3)O2)c(=O)[nH]c1=O [p-Toluoyl/p-Toluoyl, 2'-Deoxy-3',5'-di-O-p-toluoyl-5-ethynyluridine]
[2]; [5]
  IC50: > 20 µM
[3]; [6]
  IC50: > 20 µM
[4]; vero cells
  CC50 at 96 h: > 100 µM

## C#Cc1cn([C@H]2C[C@H](O)[C@@H](COC(=O)C(C)(C)C)O2)c(=O)[nH]c1=O [H/Pivaloyl, 2'-Deoxy-5-ethynyl-5'-O-pivaloyluridine]
[1]
  IC50: 0.4 µM
[2]; [5]
  IC50: > 20 µM
[3]; [6]
  IC50: 0.6 µM
[4]; vero cells
  CC50 at 96 h: 10.2 µM

## C#Cc1cn([C@H]2C[C@H](O)[C@@H](COC(=O)c3cccc(Cl)c3)O2)c(=O)[nH]c1=O [H/m-Cl Benzoyl]
[1]
  IC50: 0.46 µM
[3]; [6]
  IC50: < 0.2 µM
[4]; vero cells
  CC50 at 96 h: 19 µM

## C#Cc1cn([C@H]2C[C@H](OC(=O)c3cccc(Cl)c3)[C@@H](COC(=O)c3cccc(Cl)c3)O2)c(=O)[nH]c1=O [m-Cl Benzoyl/m-Cl Benzoyl]
[1]
  IC50: 2.7 µM
[3]; [6]
  IC50: 1.1 µM
[4]; vero cells
  CC50 at 96 h: > 100 µM

## C#Cc1cn([C@H]2C[C@H](OC(=O)C(C)(C)C)[C@@H](COC(=O)C(C)(C)C)O2)c(=O)[nH]c1=O [Pivaloyl/Pivaloyl, 2'-Deoxy-5-ethynyl-3',5'-di-O-pivaloyl uridine]
[1]
  IC50: 2 µM
[2]; [5]
  IC50: > 20 µM
[3]; [6]
  IC50: 5.5 µM
[4]; vero cells
  CC50 at 96 h: > 100 µM

## C#Cc1cn([C@H]2C[C@H](O)[C@@H](COC(=O)c3ccc(C)cc3)O2)c(=O)[nH]c1=O [H/p-Toluoyl, 2'-Deoxy-5-ethynyl-5'-O-toluoyluridine]
[1]
  IC50: 3.4 µM
[2]; [5]
  IC50: > 20 µM
[3]; [6]
  IC50: > 20 µM
[4]; vero cells
  CC50 at 96 h: 0.8 µM

## C#Cc1cn([C@H]2C[C@H](O)[C@@H](COC(=O)c3ccc(OC)cc3)O2)c(=O)[nH]c1=O [H/p-Anisoyl, 5'-O-p-Anisoyl-2'-Deoxy-5-ethynyluridine]
[1]
  IC50: 2.8 to 3.7 µM
[2]; [5]
  IC50: > 20 µM
[3]; [6]
  IC50: > 20 µM
[4]; vero cells
  CC50 at 96 h: 3 µM

## C#Cc1cn([C@H]2C[C@H](OC(=O)c3ccccc3)[C@@H](COC(=O)c3ccccc3)O2)c(=O)[nH]c1=O [Benzoyl/Benzoyl, 2'-Deoxy-3',5'-di-O-benzoyl-5-ethynyluridine]
[1]
  IC50: 4.7 µM
[2]; [5]
  IC50: > 20 µM
[3]; [6]
  IC50: > 20 µM
[4]; vero cells
  CC50 at 96 h: > 100 µM

## C#Cc1cn([C@H]2C[C@H](O)[C@@H](CO)O2)c(=O)[nH]c1=O [H/H, 2'-Deoxy-5-ethynyluridine]
Certain DNA viruses
  Activity against certain DNA viruses: very potent activity
[2]; Human alphaherpesvirus 1, Vero
  IC50: 4.5 µM
Herpes simplex viruses
  Activity against herpes simplex viruses: only moderate activity
[3]; Human alphaherpesvirus 3, MRC5, read-out: IC50 VZV
  IC50: 0.06 to 0.3 µM
[4]
  CC50 at 96 h: 0.3 to 3 µM
vaccinia
  Activity against vaccinia: only moderate activity

## C#Cc1cn([C@H]2C[C@H](O)[C@@H](COC(=O)c3ccccc3)O2)c(=O)[nH]c1=O [H/Benzoyl, 5'-O-Benzoyl-2'-deoxy-5-ethynyluridine]
[1]
  IC50: 0.3 µM
[2]; [5]
  IC50: > 20 µM
[3]; [6]
  IC50: 0.7 µM
[4]; vero cells
  CC50 at 96 h: 1.3 µM

## C#Cc1cn([C@H]2C[C@H](O)[C@@H](COC(=O)CCCCCCC)O2)c(=O)[nH]c1=O [H/Octanoyl, 2'-Deoxy-5-ethynyl-5'-O-octanoyluridine]
[1]
  IC50: 2.2 µM
[3]; [6]
  IC50: < 0.2 µM
[4]; vero cells
  CC50 at 96 h: 1.8 µM

## C#Cc1cn([C@H]2C[C@H](OC(=O)c3ccc(OC)cc3)[C@@H](COC(=O)c3ccc(OC)cc3)O2)c(=O)[nH]c1=O [p-Anisoyl/p-Anisoyl, 2'-Deoxy-3',5'-di-O-p-anisoyl-5-ethynyluridine]
[1]
  IC50: 20.7 µM
[2]; [5]
  IC50: > 20 µM
[3]; [6]
  IC50: > 20 µM
[4]; vero cells
  CC50 at 96 h: > 100 µM

## C#Cc1cn([C@H]2C[C@H](OC(=O)C3CC3)[C@@H](COC(=O)C3CC3)O2)c(=O)[nH]c1=O [Cyclopropanoyl/Cyclopropanoyl, 2'-Deoxy-3',5'-di-O-cyclopropanoyl-5-ethynyluridine]
[1]
  IC50: 2 µM
[2]; [5]
  IC50: > 20 µM
[3]; [6]
  IC50: 24 µM
[4]; vero cells
  CC50 at 96 h: > 100 µM

## C#Cc1cn([C@H]2C[C@H](OC(C)=O)[C@@H](COC(C)=O)O2)c(=O)[nH]c1=O [Acetyl/Acetyl, 2'-Deoxy-3'-5'-di-O-acetyl-5-ethynyluridine]
[2]; [5]
  IC50: > 20 µM
